The source of these data is patent US20260325473A1, “N-Beta-Hydroxybutyryl-Amino Acids and Related Compositions and Methods” (The Board of Trustees of the Leland Stanford Junior …, priority 2023, published 2026).

Each structure is given as a SMILES string.

For data set [1], the target named is T1, CNDP2 (Mus musculus, UniProt Q9D1A2).
T1 sequence (Q9D1A2 1-475): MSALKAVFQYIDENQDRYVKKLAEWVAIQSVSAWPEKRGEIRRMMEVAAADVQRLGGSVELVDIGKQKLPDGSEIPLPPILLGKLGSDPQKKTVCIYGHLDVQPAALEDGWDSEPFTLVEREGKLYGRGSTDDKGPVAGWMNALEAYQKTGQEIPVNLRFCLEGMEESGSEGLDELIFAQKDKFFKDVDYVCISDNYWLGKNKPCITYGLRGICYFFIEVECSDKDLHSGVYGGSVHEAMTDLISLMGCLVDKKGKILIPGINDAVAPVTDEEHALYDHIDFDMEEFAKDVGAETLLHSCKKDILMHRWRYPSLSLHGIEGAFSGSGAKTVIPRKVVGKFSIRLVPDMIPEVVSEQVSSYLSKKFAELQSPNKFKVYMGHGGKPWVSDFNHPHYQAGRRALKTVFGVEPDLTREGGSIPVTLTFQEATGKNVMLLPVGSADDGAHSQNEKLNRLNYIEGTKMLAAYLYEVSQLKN
Description: In vitro synthase (condensation) activity, lysates of CNDP2-transfected HEK293T cells. It is filed as biochemical. Further details: expressed in transfected cells; host or cells: HEK293T (lysate). The conditions noted are these: role: substrate; organic acids 1 mM with 10 mM phenylalanine.

Data set [2] deals with brain lysate proteins. As to the kind of experiment: Competition of X-Phe photoprobe-labeled brain proteins, quantitative shotgun proteomics. It is filed as binding, mouse. On the procedure:
Shotgun proteomics of X-Phe photoprobe-labeled proteins. Brains from wild type C57BL/6J mice were harvested and homogenized using a bead blaster in PBS. Brain homogenate was centrifuged (15,000 rpm, 10 min) to yield the cytosolic supernatant and membrane pellet fractions. The cytosolic fraction was transferred to a new eppie and centrifuged again (15,000 rpm, 10 min). This process was repeated 4 times until no pellet was present after centrifugation. The membrane pellet was washed with 1 ml PBS and centrifuged (15,000 rpm, 10 min); this step was also repeated 4 times to remove any cytosolic protein contamination. After the centrifugation steps, the membrane pellet was re-suspended in PBS and sonicated. For competition experiments, brain lysate was normalized to 2 mg/ml in PBS and incubated with competitors at the indicated concentrations at room temperature for 30 minutes. 100 μM of the photoprobe was added and the reactions incubated on ice for 10 minutes protected from light. Reactions were then put under UV for 1 min on a UV Stratalinker. A biotin click reaction was performed by adding the following reagents to the indicated final concentrations: […], 1 mM CuSO4, 1 mM TCEP (freshly prepared), 30 μM Biotin-N3. Reactions were allowed to proceed for 1 hour at room temp, protected from light, and while rotating. The following prep was adapted from Niphakis et al. 2015. To each reaction, the following solvents were added in order, 4 ml cold methanol, 1 ml cold chloroform, 2 ml cold PBS. The mixture was vortexed well and centrifuged (4,600×g, 15 min, 4° C.). After centrifugation the organic and aqueous layers were removed without disruption of the protein disc. The protein disc was washed with a cold 1:1 mixture of methanol:chloroform 3 times. After the final wash, the protein disc was re-suspended in a 4:1 mixture of methanol:chloroform and sonicated. The insoluble protein was pelleted by centrifugation (4,600×g, 15 min, 4 C) and the pellet re-suspended in freshly prepared 500 μl of 6 M urea in PBS. 20 μl of 10% (w/v) SDS was added to the solution. The solution was then warmed in a 37 C water bath for 10 min to help dissolve poorly soluble protein. A streptavidin pulldown was the performed on the protein mixture. 250 μl of streptavidin beads were washed 3 times with 1 ml PBS. Protein samples were diluted with 5.5 ml of 0.25% SDS in PBS and incubated with streptavidin beads for 1.5 hr at room temperature. Following incubation, beads were washed 5 times each with 0.25% SDS in PBS, then PBS, then lastly with ultra-pure water Steptavidin beads were suspended in 150 μL resuspension buffer (1 M urea, 50 mM Tris-HCl, pH 8). Proteins were digested with 3 μg of trypsin for 4 hours. Digested peptides were reduced with 5 mM TCEP for 10 minutes. Cys residues were alkylated using 15 mM iodoacetimide (IAA) for 20 minutes. Finally, excess IAA was quenched with 10 mM DTT. Acidified digested peptides were desalted over C18 StageTips [PMID: 12585499]. Peptides were then eluted with 80% acetonitrile, 0.1% TFA and dried in a speedvac. Dried samples were reconstituted with 200 mM EPPS buffer, pH 8.0, and labelled with TMT reagents (Thermo Fisher Scientific). Following incubation at room temperature for 2 h, the reactions were quenched with hydroxylamine to a final concentration of 0.5% (v/v). […]

The target of data set [3] is T1, CNDP2. As to the kind of experiment: In vitro synthase (condensation) activity, lysates of CNDP2-transfected HEK293T cells. It is filed as biochemical. Also noted: expressed in transfected cells; host or cells: HEK293T (lysate). The conditions noted are these: role: product; lactate and BHB at varying concentrations, phenylalanine 20 mM. How it is done: In vitro enzyme activity assays. HEK293T cells were transfected with GFP, CNDP2 or CNDP2-E166A using PolyFect (Qiagen 301105) according to the manufacturer's instructions. The medium was changed one day post-transfection. After an additional 24 h, the cells were harvested in PBS, lysed by sonication and centrifuged (10 min at 15,000 rpm) to remove debris. Supernatant was collected and protein concentrations were adjusted. The in vitro reactions were conducted in Eppendorf tubes with 100 μL of 1 mg/mL protein and 20 mM substrates for keto amino acid synthase activity assays and. Reactions were incubated for 1 h at 37° C. and 20 μl of 1 M HCl were added to acidify the medium and to protonate keto amino acids. Reactions were vortexed and 400 μL of ethyl acetate were added to each reaction. Reactions were vortexed for 30 s to extract keto amino acids into the organic layer and centrifuged at 4° C. for 10 min at 15,000 r.p.m. A total of 300 μl from the top layer was transferred to a new Eppendorf tube and dried down under a stream of nitrogen. The residue was re-suspended in 150 μl of an 2:1:1 mixture of acetonitrile: methanol: water. The mixture was centrifuged at 4° C. for 10 min at 15,000 r.p.m. and the supernatant was transferred to a LC-MS vial.

Data set [4] can be described thus: Metabolite quantitation in mouse plasma (QQQ-LC/MS). In kind it is in vivo. How it is done:
Preparation of plasma samples for LC-MS analysis. Plasma was collected from mice via a submandibular bleed into lithium heparin tubes (BD, 365985) and immediately transferred onto ice. The blood was centrifuged at 4° C. at 5000 rpm for 5 min and the top layer of plasma was aliquoted and frozen at −80 °C. To extract polar metabolites from plasma for LC-MS analysis, 150 μl of a 2:1 mixture of acetonitrile/methanol was added to 50 μl of plasma. The mixture was centrifuged at 4° C. for 10 min at 15,000 rpm and the supernatant was transferred to a LC-MS vial.
Targeted metabolomics. Targeted measurements were performed using an Agilent 6470 triple quadrupole LC-MS instrument. MS analysis was performed using AJS in negative mode. The AJS source parameters were set as follows: the dry gas temperature was set at 250° C. with a gas flow of 12 l/min and the nebulizer pressure at 25 psi; the sheath gas temperature was set to 300° C. with the sheath gas flow set at 12 l/min; and the capillary voltage was set to 3,500 V. Separation of polar metabolites was performed as described above in the ‘Untargeted measurements of metabolites by LC-MS’ section. Multiple reaction monitoring was performed for the indicated metabolites with the listed dwell times, fragmentor voltage, collision energies, cell accelerator voltages and polarities. Quantification of the endogenous metabolite concentrations were performed by generating a standard curve with known concentrations of each metabolite. Metabolite standards were analyzed alongside the plasma samples using the same targeted triple quadrupole LC/MS method. A calibration standard curve generated from the metabolite standard concentrations and total peak areas were used to calculate the concentrations of each endogenous metabolite. The dilution of the plasma during the sample preparation was also taken into account for the quantification.

For data set [5], the target named is T1, CNDP2. As to conditions: Li et al. 2022; cited from earlier work.
Data set [6] concerns food intake. The conditions noted are these: Li et al. 2022; cited from earlier work.

As for `CC(=O)O` [acetate], in data set [1], the “CNDP2 activity towards organic acid substrates” value was “unable to accept”.
Regarding `C[C@H](O)C(=O)N[C@@H](Cc1ccccc1)C(=O)O` [Lac-Phe, N-lactoyl phenylalanine], the “competition of X-Phe photoprobe-labeled proteins” value in data set [2] (100 μM photoprobe, 50-fold excess competitor) is listed as > 80%. Also, in data set [2] (50-fold excess Lac-Phe), the “number of the 32 Keto-Phe targets also >80% competed by Lac-Phe” value was 30 out of 32 and the “share of the 32 Keto-Phe targets also >80% competed by Lac-Phe” value is given as 94%. Besides, the “products formed from combined lactate and BHB” value in data set [3] is given as “simultaneous production”. In addition, the “elevation after acute treadmill running” value in data set [4] (15 min running) came out at 8 fold. Also, the “effect of ketone ester administration on level” value in data set [4] (30 min after ketone drink, 3 mg/g) was “without affecting Lac-Phe levels”. In addition, the “effect of strenuous and prolonged exercise on level” value in data set [4] (30 min strenuous running) was “robust co-induction”. Further, the “Lac-Phe levels upon genetic ablation of CNDP2” value in data set [5] was “dramatically reduces Lac-Phe levels”. In data set [6], the food intake entry is on record as “suppresses food intake”.
